# Reference: patent publication US8642621B2, “(4-phenyl-piperidin-1-yl)-[5-(1H-pyrazol-4-yl)-thiophen-3-yl]-methanone compounds and their use” (The University Of Edinburgh, priority 2009, dated 2014)
# Target: T1, human 11β-HSD1 enzyme (Homo sapiens, UniProt P28845)
# T1 construct: stably transfected with a construct containing the full-length gene coding for the human 11β-HSD1 enzyme; expressed in transfected cells; HEK293/11β-HSD1 cells)
# Assay: Cellular in vitro 11β-HSD1 enzyme inhibition assay (SPA, HEK293/11β-HSD1 cells)
# Assay type: cell-based
# Settings: not given
# Experimental: Cellular In Vitro 11β-HSD1 Enzyme Inhibition Assay
# Compounds were assessed by a Scintillation Proximity Assay (SPA) performed according to the following protocol:
# HEK293 cells were stably transfected with a construct containing the full-length gene coding for the human 11β-HSD1 enzyme to create HEK293/11β-HSD1 cells. Cells were routinely cultured in DMEM containing 10% calf foetal serum, 1% glutamine, and 1% penicillin and streptomycin. Prior to assay, cells were plated at 2×10^4 cells/well in 96-well poly-D-Lys coated flat-bottomed microplates and incubated in 5% CO2, 95% O2 at 37° C. for 24 hours. The media in each well was removed immediately before assay.
# Compounds to be tested were dissolved in DMSO at 10 mM and serially diluted into water containing 10% DMSO. Diluted compounds at a volume of 10 μL were added to wells of a 96-well V-bottomed microplate. A solution of DMEM, 1% glutamine, 1% penicillin and streptomycin, and 22 nM tritiated cortisone was prepared and 90 μL added to each well of the assay plate. This solution (100 μL/well) was transferred to the plate containing the cells. The plate was then incubated in 5% CO2, 95% O2 at 37° C. for 2 hours.
# Following this incubation, 50 μL of the assay solution was transferred to each well of a 96-well scintillation microplate. A mixture consisting of anti-mouse YSi SPA beads, pre-mixed with anti-cortisol antibody in assay buffer (50 mM Tris.HCl, pH 7.0; 300 mM NaCl; 1 mM EDTA, 5% glycerol) was prepared and 50 μL added to each well of the scintillation microplate. An adhesive strip was applied to the microplate and the plate gently shaken for at least 2 hours at room temperature, and then spun briefly on a low speed centrifuge. The plate was read on a scintillation counter suitable for 96-well microplates. For the calculation of percentage inhibition, a series of wells were added to the plate that represented the assay maximum and the assay minimum: one set that contained substrate without cells (minimum) and another set that contained substrate and cells without any compound (maximum).
# The calculation of median inhibitory concentration (IC50) values for the compounds was performed using GraphPad Prism® software. Dose-response curves for each compound were plotted as fractional inhibition and data fitted to the four parameter logistic equation.
# T1 sequence (P28845 whole entry): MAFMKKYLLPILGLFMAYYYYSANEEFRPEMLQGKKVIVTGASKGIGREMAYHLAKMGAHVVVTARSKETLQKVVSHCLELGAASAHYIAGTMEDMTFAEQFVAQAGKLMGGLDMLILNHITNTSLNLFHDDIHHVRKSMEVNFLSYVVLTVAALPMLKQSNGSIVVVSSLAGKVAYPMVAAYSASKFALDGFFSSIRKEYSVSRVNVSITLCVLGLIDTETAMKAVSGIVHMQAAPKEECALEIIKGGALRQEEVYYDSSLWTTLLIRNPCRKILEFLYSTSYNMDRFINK
row,SMILES,IC50 [nM]
1,N#CC1(c2ccccc2Cl)CCN(C(=O)c2csc(-c3cn[nH]c3)c2)CC1 [AA-41],1000 to 10000
2,N#CC1(c2ccccc2)CCN(C(=O)c2csc(-c3cn[nH]c3)c2)CC1 [AA-20],1000 to 10000

# Same assay, conditions: read-out: IC50 for 11β-HSD1 (HEK293)
row,SMILES,IC50 [nM]
1,O=C(c1csc(-c2cn[nH]c2)c1)N1CCC(F)(c2ccc(Cl)cc2)CC1 [AA-35],500 to 1000
2,O=C(c1csc(-c2cn[nH]c2)c1)N1CCC(c2ccc(F)cc2F)CC1 [BB-10],500 to 1000
3,O=C(c1csc(-c2cn[nH]c2)c1)N1CCC(O)(c2ccc(Cl)c(Cl)c2)CC1 [AA-11],≤ 500
4,O=C(c1csc(-c2cn[nH]c2)c1)N1CCC(O)(c2cc(F)ccc2Cl)CC1 [AA-26],≤ 500
5,O=C(c1csc(-c2cn[nH]c2)c1)N1CCC(c2ccccc2Cl)CC1 [BB-15],≤ 500
6,O=C(c1csc(-c2cn[nH]c2)c1)N1CCC(O)(c2c(F)cccc2Cl)CC1 [AA-23],≤ 500
7,O=C(c1csc(-c2cn[nH]c2)c1)N1CC2CCC(C1)C2(O)c1ccccc1 (centres unmarked) [AA-32],500 to 1000
8,O=C(c1csc(-c2cn[nH]c2)c1)N1CCC(O)(c2cccc(C(F)(F)F)c2)CC1 [AA-03],500 to 1000
9,O=C(c1csc(-c2cn[nH]c2)c1)N1CCC(c2ccccc2OC(F)F)CC1 [BB-09],≤ 500
10,O=C(c1csc(-c2cn[nH]c2)c1)N1CCC(O)(c2ccc(Cl)cc2Cl)CC1 [AA-24],≤ 500
11,O=C(c1csc(-c2cn[nH]c2)c1)N1CCC(O)(c2c(Cl)cccc2Cl)CC1 [AA-27],≤ 500
12,"O=C(c1csc(-c2cn[nH]c2)c1)N1CC2CCC(C1)C2(F)c1ccccc1 (centres unmarked) [AA-39, (8-Fluoro-8-phenyl-3-aza-bicyclo[3.2.1]oct-3-yl)-[5-(1H-pyrazol-4-yl)-thiophen-3-yl]methanone]",1000 to 10000
13,O=C(c1csc(-c2cn[nH]c2)c1)N1CCC(CO)(c2ccccc2)CC1 [AA-19],1000 to 10000
14,O=C(c1csc(-c2cn[nH]c2)c1)N1CCC(c2ccccc2CO)CC1 [BB-14],≤ 500
15,COc1ccccc1C1(O)CC2CCC(C1)N2C(=O)c1csc(-c2cn[nH]c2)c1 (centres unmarked) [AA-25],≤ 500
16,Cc1ccccc1C1CCN(C(=O)c2csc(-c3cn[nH]c3)c2)CC1 [BB-12],≤ 500
17,O=C(c1csc(-c2cn[nH]c2)c1)N1CCC(F)(c2ccc(Cl)cc2Cl)CC1 [AA-38],≤ 500
18,Cc1n[nH]cc1-c1cc(C(=O)N2CCC(O)(c3ccccc3Cl)CC2)cs1 [AA-29],≤ 500
19,O=C(c1csc(-c2cn[nH]c2)c1)N1CCC(O)(c2ccccc2O)CC1 [AA-10],1000 to 10000
20,O=C(c1csc(-c2cn[nH]c2)c1)N1CCC(O)(c2c(F)cccc2F)CC1 [AA-28],≤ 500
21,O=C(c1csc(-c2cn[nH]c2)c1)N1CCC(O)(c2ccccc2C(F)(F)F)CC1 [AA-14],≤ 500
22,N#Cc1ccc(C2CCN(C(=O)c3csc(-c4cn[nH]c4)c3)CC2)cc1 [BB-02],1000 to 10000
23,O=C(c1csc(-c2cn[nH]c2)c1)N1CCC(O)(c2cc(Cl)ccc2Cl)CC1 [AA-31],≤ 500
24,Cc1cccc(F)c1C1(F)CCN(C(=O)c2csc(-c3cn[nH]c3)c2)CC1 [AA-40],≤ 500
25,O=C(c1csc(-c2cn[nH]c2)c1)N1CCC(O)(c2cccc(Cl)c2Cl)CC1 [AA-21],≤ 500
26,CC1(c2ccccc2Cl)CCN(C(=O)c2csc(-c3cn[nH]c3)c2)CC1 [AA-34],≤ 500
27,Cc1ccccc1C1(O)CCN(C(=O)c2csc(-c3cn[nH]c3)c2)CC1 [AA-13],≤ 500
